Values after ≈ are worked out from the molar mass of the structure shown.
What was measured:
[1] = system: Wi-38 cells; experiment: MTT cytotoxicity assay, normal cells; type: cell-based; conditions: normal human lung fibroblast cells, 48 h
Excerpt: (§1) MTT assay: the normal cell line (Wi-38), colon cancer (Caco-2), lung cancer (A549), and breast cancer (MDA) cell lines were sourced from ATCC, USA. All different cell lines were cultivated and preserved in DMEM medium (SERANA, Germany), accompanied by 10% FBS (Gibco, USA) and 1% Pen/Strep solution (Lonza, USA). The newly prepared derivatives at various doses were considered for their anticancer activity and their safety on normal cells, applying MTT (3-[4, 5-dimethylthiazol]-2, 5-diphenyltetrazolium bromide) methods.[22] At first, all normal and cancer cell lines (1.0 ×10^4) were inoculated in 4 antiseptic 96-well tissue culture microplates and incubated for 24 h in a CO2 incubator. After cell attachments, the prepared derivatives were added to both normal Wi-38 cells at diverse concentrations of (6.25–200 μg mL^−1, 2-fold) and cancer cells at different concentrations of (3.125–100 μg mL^−1, 2-fold) in triplicate and incubated for another 48 h at 37 °C in a CO2 incubator with an adjusted concentration of 5%. After that, the treated cells were cleaned three times with PBS to remove debris and dead cells. Next, 200 μL of 0.5 mg mL^−1 MTT dye solution in PBS was mixed in each well, and the cells were further kept for 3 h at 37 °C in a 5% CO2 incubator. After that, MTT was removed and 200 μL of DMSO was added to each well. The optical density (OD) was recorded at 570 nm via a microplate reader (B.M.G. LabTech, Germany). Basic cells (untreated) were utilized as negative control cells, and 5-fluorouracil (5-FU) was included as a standard chemotherapy drug. The qualified cell viability (%) was evaluated as in equation (eqn (1)):1 Relative cell viability (%) = […] A1 is the OD of the examined derivative, A0 is the OD of the standard, and AU is the OD of the untreated cells.
(§2) Anticancer activity assay: the anticancer effect of each derivative was assessed by evaluating the half-maximal inhibitory concentration (IC50) value via the GraphPad Prism 7.0 software. However, SI (selective index) values of each derivative were estimated by splitting the IC50 value of healthy cells by the IC50 value of malignant cells, as previously reported.[23] The effects of the created derivatives on the morphology of MDA cells were evaluated at IC50 doses and captured by phase-contrast microscopy (Olympus, Germany) in comparison to untreated control cells.

[2] = system: Caco-2 cells; experiment: MTT anticancer assay; type: cell-based; conditions: for SI Caco-2: IC50 Wi-38 / IC50 Caco-2; for IC50 Caco-2: colon carcinoma cells, MTT, 48 h
Excerpt: as §1, §2

[3] = system: A549 cells; experiment: MTT anticancer assay; type: cell-based, human; conditions: lung carcinoma cells, 48 h
Excerpt: as §1, §2

[4] = system: MDA cells; experiment: MTT anticancer assay; type: cell-based, human; conditions: breast carcinoma cells, 48 h
Excerpt: as §1, §2

[5] = system: A549 cells; experiment: Wound healing scratch (anti-migration) assay; type: cell-based, human; conditions: IC50 doses, 48 h
Experimental: To assess the anti-migration inhibition capability of newly synthesized derivatives, a wound healing technique was employed. A549 cells were planted in 12-well plates and kept alive at 37 °C until they achieved 80–90% fluency. The cell monolayers were smashed with a sterile tip and exposed to the prepared derivatives at IC50 doses. At 0 and 48 h of treatment, the wound closure area was captured and calculated by imaging analysis with the Cell-Sens software (Olympus, Japan).

[6] = system: S. aureus; experiment: Agar-well diffusion of synthesized compounds; type: cell-based, Staphylococcus aureus ATCC 25923; conditions: 100 μL of 10 mg mL^−1 per well, 24 h, 37 °C
Excerpt: The antimicrobial activity of the prepared compounds was estimated through an agar-well diffusion method as adapted from the modified Kirby–Bauer protocol.[24] In this test, microbial pathogens were applied, including Staphylococcus aureus ATCC 25923 (S. aureus), Streptococcus mutans ATCC 25175 (S. mutans), Bacillus cereus ATCC 19637 (B. cereus), Bacillus aureus ATCC 25923 (B. aureus), Bacillus epidermidis ATCC 14990 (B. epidermidis), and Bacillus subtilis ATCC 11774 (B. subtilis) as Gram-positive bacteria, and Pseudomonas aeruginosa ATCC 27853 (P. aeruginosa), Klebsiella pneumonia ATCC 13883 (K. pneumonia), and Salmonella typhimurium ATCC 14028 (S. typhimurium), Salmonella pneumoniae ATCC 10031(S. pneumoniae), Escherichia coli ATCC 10536 (E. coli), and Salmonella paratyphi ATCC 9150 (S. paratyphi) as Gram-negative bacteria. Additionally, Candida albicans (ATCC 10231), Candida krusei ATCC 6258 (C. krusei), Candida glabrata ATCC 66032 (C. glabrata), andCandida parapsilosis ATCC 22019 (C. parapsilosis) were applied as models of unicellular fungi. The pre-inoculation cultures of the pathogens were prepared on Muller–Hinton broth and cultivated for 24 h at 37 °C. The agar-well test was prepared on Muller–Hinton agar with 100 μL of each pathogen pre-culture (0.5 McFarland conc.) and uniformly distributed on the plate surface. […]

[7] = system: S. mutans; experiment: Agar-well diffusion of synthesized compounds; type: cell-based, Streptococcus mutans ATCC 25175; conditions: 100 μL of 10 mg mL^−1 per well, 24 h, 37 °C
Excerpt: The antimicrobial activity of the prepared compounds was estimated through an agar-well diffusion method as adapted from the modified Kirby–Bauer protocol.[24] In this test, microbial pathogens were applied, including Staphylococcus aureus ATCC 25923 (S. aureus), Streptococcus mutans ATCC 25175 (S. mutans), Bacillus cereus ATCC 19637 (B. cereus), Bacillus aureus ATCC 25923 (B. aureus), Bacillus epidermidis ATCC 14990 (B. epidermidis), and Bacillus subtilis ATCC 11774 (B. subtilis) as Gram-positive bacteria, and Pseudomonas aeruginosa ATCC 27853 (P. aeruginosa), Klebsiella pneumonia ATCC 13883 (K. pneumonia), and Salmonella typhimurium ATCC 14028 (S. typhimurium), Salmonella pneumoniae ATCC 10031(S. pneumoniae), Escherichia coli ATCC 10536 (E. coli), and Salmonella paratyphi ATCC 9150 (S. paratyphi) as Gram-negative bacteria. Additionally, Candida albicans (ATCC 10231), Candida krusei ATCC 6258 (C. krusei), Candida glabrata ATCC 66032 (C. glabrata), andCandida parapsilosis ATCC 22019 (C. parapsilosis) were applied as models of unicellular fungi. The pre-inoculation cultures of the pathogens were prepared on Muller–Hinton broth and cultivated for 24 h at 37 °C. The agar-well test was prepared on Muller–Hinton agar with 100 μL of each pathogen pre-culture (0.5 McFarland conc.) and uniformly distributed on the plate surface. Under aseptic conditions, six wells were created on the agar surface using a sterile corkborer (9 mm). To each well, 100 μL of the prepared compound (10 mg mL^−1) was separately inserted into each plate. All plates were incubated for 24 h at 37 °C; the established inhibition zones (Halo-zones) surrounding the wells indicated positive antimicrobial activity and were stated as the radius of the inhibition zone (mm).

SMILES: Nc1ccc(Nc2c3ccccc3nc3ccccc23)cc1 [Compound B1]
- IC50 Wi-38 [1]: 195.0 ± 14.41 µg/mL (≈ 683 µM)
- SI Caco-2 [2]: 8.07 ± 0.59
- IC50 Caco-2 [2]: 24.15 ± 1.76 µg/mL (≈ 84.6 µM)
- IC50 A549 [3]: 16.93 ± 1.88 µg/mL (≈ 59.3 µM)
- IC50 MDA [4]: 8.92 ± 0.67 µg/mL (≈ 31.3 µM)
- Migration inhibition [5]: 74.63%
- Inhibition zone [6]: about 13 mm
- Inhibition zone [7]: about 13 mm

SMILES: Nc1ccc(Nc2ccnc3cc(Cl)ccc23)cc1 [Compound A1]
- IC50 Wi-38 [1]: 175.3 ± 14.08 µg/mL (≈ 650 µM)
- SI Caco-2 [2]: 4.59 ± 0.37
- IC50 Caco-2 [2]: 38.23 ± 1.64 µg/mL (≈ 142 µM)
- IC50 A549 [3]: 32.05 ± 2.18 µg/mL (≈ 119 µM)
- IC50 MDA [4]: 14.91 ± 0.96 µg/mL (≈ 55.3 µM)

SMILES: Cc1ccc(-c2nnc(Nc3ccc(N)cc3)c3ccccc23)cc1 [Compound C1]
- IC50 Wi-38 [1]: 192.7 ± 16.79 µg/mL (≈ 590 µM)
- SI Caco-2 [2]: 15.94 ± 1.39
- IC50 Caco-2 [2]: 12.09 ± 1.42 µg/mL (≈ 37 µM)
- IC50 A549 [3]: 21.01 ± 2.05 µg/mL (≈ 64.4 µM)
- IC50 MDA [4]: 13.98 ± 0.57 µg/mL (≈ 42.8 µM)

From publication PMC12495412, “Coumarin/nitrogen-bearing heterocyclic hybrid-loaded electrospun PMMA/PVP nanofibrous scaffolds for accelerating topical wound healing rates: synthesis and in vitro bio-evaluation” (RSC Advances, 2025)
